pKi: −log10 of the molar value.

The target of this assay is Human Polθ polymerase domain (aa1820-2590) (Homo sapiens (Human), UniProt O75417). In words: Polθ Polymerase Domain WT Ki Assay (PicoGreen assay). It is filed as biochemical. The note with it: average of repeat determinations; 100 nM DNA substrate, 50 μM dNTPs, 0.156 nM Polθ. The procedure: A PicoGreen assay was used to measure the K, values of reversible compounds that inhibit the activity of Polθ in vitro.
Human Polθ polymerase domain (aa1820-2590) was expressed in E. Coli, purified, aliquoted and stored at −80° C. until required. Polθ substrate was generated from a 1.2:1 mix of DNA II Short to DNA II Long to give a final concentration of […] substrate in annealing buffer (20 mM Tris pH 7.5, 50 mM NaCl). The substrate was heated in 50 mL aliquots to 95° C. in a heating block for 5 min before the heating block switched off, the reaction left to cool to rt and stored at −20° C. until required.
Assay measurements were performed with 1× buffer comprising 25 mM Tris pH 7.5, 12.5 mM NaCl, […], 5% (v/v) glycerol, 0.01% v/v Triton x-100, 0.1 mg/ml BSA, 1 mM DTT. […]
To stop the reaction, 5 μL of a solution containing 25 mM Tris-HCl pH 7.5 and 20 mM EDTA was added at […] (t=0, 15, 30, 60, 90, 120, 150, 180 mins) using the Tempest's time delay function. […] After completing the assay, 5 μL of detection reagent (25 mM Tris-HCl pH 7.5 and 2.5% (v/v) PicoGreen) was dispensed into the wells using a Tempest liquid handler (Formulatrix) and plates subsequently read on the CLARIOstar Plus (BMG Labtech) using the default optical settings for fluorescein and the auto gain/focus settings. […]

Chain of Human Polθ polymerase domain (aa1820-2590) (O75417 1820-2590): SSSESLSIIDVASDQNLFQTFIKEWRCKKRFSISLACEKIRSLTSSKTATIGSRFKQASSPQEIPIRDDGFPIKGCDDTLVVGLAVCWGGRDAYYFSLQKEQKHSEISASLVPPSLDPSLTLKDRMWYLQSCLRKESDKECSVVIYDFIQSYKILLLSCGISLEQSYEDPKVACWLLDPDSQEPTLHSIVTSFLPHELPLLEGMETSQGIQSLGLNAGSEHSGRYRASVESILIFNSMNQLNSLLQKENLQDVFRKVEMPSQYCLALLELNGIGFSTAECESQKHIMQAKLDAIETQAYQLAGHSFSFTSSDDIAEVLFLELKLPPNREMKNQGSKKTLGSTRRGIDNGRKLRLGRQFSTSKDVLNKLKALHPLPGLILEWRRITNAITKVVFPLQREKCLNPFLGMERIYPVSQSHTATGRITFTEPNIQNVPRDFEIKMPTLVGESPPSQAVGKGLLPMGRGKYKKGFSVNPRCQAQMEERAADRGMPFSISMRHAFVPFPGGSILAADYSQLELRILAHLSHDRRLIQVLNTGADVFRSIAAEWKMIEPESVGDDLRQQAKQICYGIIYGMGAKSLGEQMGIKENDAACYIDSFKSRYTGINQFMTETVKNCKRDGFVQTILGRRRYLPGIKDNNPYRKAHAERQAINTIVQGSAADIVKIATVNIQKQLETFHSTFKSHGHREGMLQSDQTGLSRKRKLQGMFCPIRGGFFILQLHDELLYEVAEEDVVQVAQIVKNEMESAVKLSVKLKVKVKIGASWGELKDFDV

`Cc1cc(C(F)(F)F)cc(N2C(=O)C[C@@H]3CN(CCN4CCN(C)CC4)c4c(C)cccc4N(C)C(=O)[C@H]32)n1` [Example 1, (3aR,11aS)-6,10-Dimethyl-1-(6-methyl-4-(trifluoromethyl)pyridin-2-yl)-5-(2-(4-methylpiperazin-1-yl)ethyl)-1,3a,4,5,10,11a-hexahydro-2H-benzo[b]pyrrolo[2,3-f][1,4]diazocine-2,11(3H)-dione]: the negative-log Ki (pKi) was 8.90.

The pKi is the Ki on a negative log10 scale, so that one unit is a factor of ten. Read a high pKi as a low Ki.
